Measurements: publication PMC6382835, “A critical evaluation of TRPA1-mediated locomotor behavior in zebrafish as a screening tool for novel anti-nociceptive drug discovery” (Scientific Reports, 2019)

Columns and labels:
mouse TRPA1 (mTRPA1) = biological target: T1, mouse TRPA1 (mTRPA1) (Mus musculus, UniProt Q8BLA8); assay: FLIPR calcium signaling assay in mTRPA1-transfected HEK293 cells; format: cell-based; details: Schild plot against ASP7663-induced calcium influx, mTRPA1
T1 construct: host or cells: HEK293 (ATCC CRL-1573), transient transfection
T1 sequence (Q8BLA8 whole entry): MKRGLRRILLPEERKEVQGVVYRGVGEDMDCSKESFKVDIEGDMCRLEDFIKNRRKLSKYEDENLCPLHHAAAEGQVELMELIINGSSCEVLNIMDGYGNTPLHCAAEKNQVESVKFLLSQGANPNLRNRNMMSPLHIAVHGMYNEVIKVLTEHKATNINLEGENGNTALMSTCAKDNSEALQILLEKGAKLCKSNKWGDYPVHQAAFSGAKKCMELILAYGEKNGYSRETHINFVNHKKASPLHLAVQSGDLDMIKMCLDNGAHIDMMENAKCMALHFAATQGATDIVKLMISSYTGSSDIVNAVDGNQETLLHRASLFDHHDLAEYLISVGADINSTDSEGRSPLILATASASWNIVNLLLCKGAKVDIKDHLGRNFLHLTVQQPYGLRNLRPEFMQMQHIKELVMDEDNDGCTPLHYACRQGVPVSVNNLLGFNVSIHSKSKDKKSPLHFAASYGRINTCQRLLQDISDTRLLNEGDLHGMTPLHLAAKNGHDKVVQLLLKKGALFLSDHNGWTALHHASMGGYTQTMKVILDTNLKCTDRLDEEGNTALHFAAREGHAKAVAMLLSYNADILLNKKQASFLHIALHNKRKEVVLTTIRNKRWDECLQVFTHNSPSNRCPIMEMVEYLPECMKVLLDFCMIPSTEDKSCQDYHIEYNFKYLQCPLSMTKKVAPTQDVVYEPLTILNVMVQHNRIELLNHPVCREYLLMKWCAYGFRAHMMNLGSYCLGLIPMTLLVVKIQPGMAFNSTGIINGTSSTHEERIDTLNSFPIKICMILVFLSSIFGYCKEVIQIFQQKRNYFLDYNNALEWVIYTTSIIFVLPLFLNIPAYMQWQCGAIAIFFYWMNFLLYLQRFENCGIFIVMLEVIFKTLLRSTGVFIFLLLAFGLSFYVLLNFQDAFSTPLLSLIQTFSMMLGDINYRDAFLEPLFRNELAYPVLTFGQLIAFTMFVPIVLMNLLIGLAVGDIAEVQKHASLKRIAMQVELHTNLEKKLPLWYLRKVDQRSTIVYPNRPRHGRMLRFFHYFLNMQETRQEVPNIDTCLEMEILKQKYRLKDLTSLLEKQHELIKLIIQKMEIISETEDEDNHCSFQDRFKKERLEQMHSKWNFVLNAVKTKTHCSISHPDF
Procedure: HEK293 cells (#CRL-1573, ATCC, VA, USA) were cultured in DMEM media (#11995-065, Sigma-Aldrich, MO, USA) with 10% Fetal Bovine Serum (#F0926-500ML, Thermo Fisher, MA, USA). The cells were maintained in a 37 °C incubator with consistent 5% CO2. They were seeded in a clear 6 well flat bottom cell culture plates (#07-200-83, Corning ®, Thermo Fisher) with 500,000 cells/2 ml/well for transfection, in serum-free Opti-MEM (#31985070, Gibco®, Thermo Fisher). These cells were transfected with pcDNA3.1-mTRPA1 (#MR227099, OriGene, MD, USA), pcDNA3.1-zTRPA1a, or pcDNA3.1-zTRPA1b (a gift from Dr. David Prober) using X-tremeGENE^TM 9 (#6365809001, Sigma-Aldrich). After 24 hours, the transfected cells were dislodged with trypsin, resuspended in Opti-MEM, and seeded 25,000 cells/25 µl/well in 384-well black polystyrene microplates (#82051-296, VWR, PA, USA) for testing calcium signaling the following day. Experiments were carried out with the approval of the Institutional Biohazard Committee (#13-013-16).
Twenty-five µl calcium sensitive Fluorescent Imaging Plate Reader (FLIPR) Calcium 6 assay dye (#R8190, Molecular Devices, CA, USA) was added to each well of a 384-well plate containing HEK293 cells transiently expressing mTRPA1, zTRPA1a, and zTRPA1b, respectively. The cells were incubated for an hour prior to the recording of intracellular calcium levels in a FlexStation3 Multi-Mode Microplate Reader (#R8190, Molecular Devices) as previously described. All compounds were diluted in calcium buffer made with 1x HBSS (#14025-092, Thermo Fisher), 20 mM HEPES (#15630-080, Thermo Fisher), and 2.5 mM Probenecid (#P8761, Sigma-Aldrich). For agonist studies, ASP7663 (#5178, Tocris, Bristol, UK) was diluted in 1% DMSO-containing calcium buffer at desired concentrations and was added during the recording. The TRPA1 antagonists HC-030031 (#2896, Tocris), TCS-5861528 (#3938, Tocris), and A-967079 (#4716, Tocris) were diluted in calcium buffer, and 5 µl of 10x solutions were added 10 minutes prior to the recording. The same amount of DMSO (1%) was added to all control groups to maintain similar DMSO levels with the experimental groups. During the assay, the cells were challenged by a 5x ASP7663 solution or 1% DMSO solution at the 20 seconds time point, and both solutions were diluted in calcium buffer. Relative fluorescence units (RFU) were measured for 120 seconds period by the Flexstation. Area under the curve (AUC) was further evaluated from individual calcium influx data (Supplemental Figs 2 and 4) to plot does-response curve of antagonists. For each specific antagonist concentration we plotted Log(dose ratio-1) against the antagonist concentration in a Schild plot. The dose ratio (A’/A) equals the EC50 of the agonist ([…]) in the presence of a concentration of the antagonist (A’) divided by the EC50 of the agonist in the absence of antagonist (A). The x-intercept of the Schild plot was used to identify the antagonist-receptor affinity (pA2).
All data are presented as means ± standard error of the mean (SEM). For our in vitro statistical analysis, AUC of calcium influx (RFU) was measured to plot dose-response curves, which were further analyzed by nonlinear regression analysis. Mean RFU of the first 10 seconds was used as a baseline of the AUC. EC50 values of the dose-response curves were further used to plot Schild curves, and the curves were analyzed with linear regression analysis. For the mice von Frey test, mechanical thresholds were analyzed with two-way ANOVA followed by a Bonferonni test for multiple comparison analysis. For the zebrafish behavior test, the data from the first five seconds following drug administration were excluded, as zebrafish displacement during that period was highly influenced by liquid dispensing. AUC of all curves were measured and analyzed by one-way ANOVA. The post-hoc analysis was conducted with the Tukey’s or Dunnett’s multiple comparisons unless it stated otherwise. […]

rat TRPA1 = system: rat TRPA1; design: method as in PMID 21402443; details: cited from earlier work

SMILES	pA2 (mouse TRPA1 (mTRPA1))	pA2 expressed in µM (mouse TRPA1 (mTRPA1))	IC50 (rat TRPA1)	fold stronger than HC-030031 (rat TRPA1)
CCC(=N\O)/C(C)=C/c1ccc(F)cc1 [A-967076]	7.0 ± 0.3	0.09 µM	289 nM	about 25 fold
CCC(C)c1ccc(NC(=O)Cn2cnc3c2c(=O)n(C)c(=O)n3C)cc1 (stereo not drawn) [TCS-5861528]	5.34 ± 0.2	4.6 µM		
